Test system: genes regulated by the Gcn4 transcription factor
Experiment: Transcript response (DNA microarray) to a titration series of FK506, genes of the Gcn4 geneset
Type: cell-based, Saccharomyces cerevisiae
Description: Yeast (Saccharomyces cerevisiae, Strain YPH499, see, Sikorski and Hieter, 1989, A system of shuttle vectors and yeast host strains designated for efficient manipulation of DNA in Saccharomyces cerevisiae, Genetics 122:19-27) cells were grown in YAPD at 30° C. to an OD600 of 1.0 (±0.2), and total RNA prepared by breaking cells in phenol/chloroform and 0.1% SDS by standard procedures (Ausubel et al., 1995, Current Protocols in Molecular Biology, Greene Publishing and Wiley-Interscience, New York, Ch. 13). Poly(A)^+ RNA was selected by affinity chromatography on oligo-dT cellulose (New England Biolabs) essentially as described in Sambrook et al. (Molecular Cloning—A Laboratory Manual (2nd Ed.), Vol. 1, Cold Spring Harbor Laboratory, Cold Spring Harbor, N.Y., 1989). First strand cDNA synthesis was carried out with 2 μg poly(A)^+ RNA and SuperScript™ II reverse transcriptase (Gibco-BRL) according to the manufacturer's instructions with the following modifications. Deoxyribonucleotides were present at the following concentrations: dA, dG, and dC at 500 μM each, dT at 100 μM and either Cy3-dUTP or Cy5-dUTP (Amersham) at 100 μM. cDNA synthesis reactions were carried out at 42-44° C. for 90 minutes, after which RNA was degraded by the addition of 2 units of RNAse H, and the cDNA products were purified by two successive rounds of centrifugation dialysis using MICROCON-30 microconcentrators (Amicon) according to the manufacturer's recommendations.
Double-stranded DNA polynucleotides corresponding in sequence to each ORF in the S. cerevisiae genome encoding a polypeptide greater than 99 amino acids (based on the published yeast genomic sequence, e.g., Goffeau et al., 1996, Science 274:546-567) are made by polymerase chain reaction (PCR) amplification of yeast genomic DNA. Two PCR primers are chosen internal to each of the ORFs according to two criteria: (i) the amplified fragments are 300-800 bp and (ii) none of the fragments have a section of more than 10 consecutive nucleotides of sequence in common. Computer programs are used to aid in the design of the PCR primers. Amplification is carried out in 96 well microtitre plates. The resulting DNA fragments are printed onto glass microscope slides using the method of Shalon et al., 1996, Genome Research 6:639-645.
Fluorescently-labeled cDNAs (2-6 μg) are resuspended in 4×SSC plus 1 μg/μl tRNA as carrier and filtered using […] filters (Millipore, Bedford, Mass.). SDS is added to 0.3%, prior to heating to 100° C. for 2 minutes. Probes are cooled and immediately hybridized to the microarrays produced as described in Example 6.2, for 4 hours at 65° C. Non-hybridized probe is removed by washing in 1×SSC plus 0.1% SDS at ambient temperature for 1-2 minutes. Microarrays are scanned with a fluorescence laser-scanning device as previously described (Schena et al., 1995, Science 270:467-470; Schena et al., 1995, Proc. Natl. Acad. Sci. USA 93:[…]) and the results (including the positions of perturbations) are recorded.
Geneset number 3 in the clustering analysis result of FIG. 6 involves genes regulated by the Gcn4 transcription factor. This was verified via the literature and via multiple sequence alignment analysis of the regulatory regions 5′ to the individual genes (Stormo and Hartzell, 1989, Identifying protein binding sites from unaligned DNA fragments, Proc Natl Acad Sci 86:1183-1187; Hertz and Stormo, 1995, Identification of consensus patterns in unaligned DNA and protein sequences: a large-deviation statistical basis for penalizing gaps, Proc of 3rd Intl Conf on Bioinformatics and Genome Research, Lim and Cantor, eds., World Scientific Publishing Co., Ltd. Singapore, pp. 201-216). […] These 20 were used to define a geneset. Response profiles to a titration series of the drug FK506, which is known to hit this pathway at higher concentrations, were projected onto this geneset. […]

Structure (SMILES): C=CC[C@@H]1/C=C(\C)C[C@H](C)C[C@H](OC)[C@H]2O[C@@](O)(C(=O)C(=O)N3CCCC[C@H]3C(=O)O[C@H](/C(C)=C/[C@@H]3CC[C@@H](O)[C@H](OC)C3)[C@H](C)[C@@H](O)CC1=O)[C@H](C)C[C@@H]2OC [FK506]
- Geneset Average response (projected response of the 20-gene Gcn4 geneset) (FK506 0.1 μg/ml): 0.1728 standard deviations of Log10(Expression Ratio)
- Response of gene ARG1 (FK506 0.1 μg/ml): 0.2083 standard deviations of Log10(Expression Ratio)
- Response of gene ARG4 (FK506 0.1 μg/ml): 0.3585 standard deviations of Log10(Expression Ratio)
- Response of gene ARG5,6 (FK506 0.1 μg/ml): 0.1162 standard deviations of Log10(Expression Ratio)
- Response of gene ECM13 (FK506 0.1 μg/ml): 0.1269 standard deviations of Log10(Expression Ratio)
- Response of gene HIS3 (FK506 0.1 μg/ml): −0.3719 standard deviations of Log10(Expression Ratio)
- Response of gene HIS5 (FK506 0.1 μg/ml): 0.0292 standard deviations of Log10(Expression Ratio)
- Response of gene MET16 (FK506 0.1 μg/ml): 0.0225 standard deviations of Log10(Expression Ratio)
- Response of gene NCE3 (FK506 0.1 μg/ml): 0.0371 standard deviations of Log10(Expression Ratio)
- Response of gene PCL5 (FK506 0.1 μg/ml): 0.1418 standard deviations of Log10(Expression Ratio)
- Response of gene SNO1 (FK506 0.1 μg/ml): −0.2899 standard deviations of Log10(Expression Ratio)
- Response of gene SNZ1 (FK506 0.1 μg/ml): −0.7223 standard deviations of Log10(Expression Ratio)
- Response of gene SSU1 (FK506 0.1 μg/ml): 0.6257 standard deviations of Log10(Expression Ratio)
- Response of gene YBR047W (FK506 0.1 μg/ml): 0.0781 standard deviations of Log10(Expression Ratio)
- Response of gene YER024W (FK506 0.1 μg/ml): 0.1985 standard deviations of Log10(Expression Ratio)
- Response of gene YGL117W (FK506 0.1 μg/ml): 0.6309 standard deviations of Log10(Expression Ratio)
- Response of gene YGL184C (FK506 0.1 μg/ml): 0.0654 standard deviations of Log10(Expression Ratio)
- Response of gene YHR029C (FK506 0.1 μg/ml): −0.031 standard deviations of Log10(Expression Ratio)
- Response of gene YMR195W (FK506 0.1 μg/ml): 0.7615 standard deviations of Log10(Expression Ratio)
- Geneset Average response (projected response of the 20-gene Gcn4 geneset) (FK506 0.31 μg/ml): 0.6753 standard deviations of Log10(Expression Ratio)
- Response of gene ARG1 (FK506 0.31 μg/ml): 0.3436 standard deviations of Log10(Expression Ratio)
- Response of gene ARG4 (FK506 0.31 μg/ml): 0.3508 standard deviations of Log10(Expression Ratio)
- Response of gene ARG5,6 (FK506 0.31 μg/ml): 0.2722 standard deviations of Log10(Expression Ratio)
- Response of gene ARO3 (FK506 0.31 μg/ml): −0.1371 standard deviations of Log10(Expression Ratio)
- Response of gene ECM13 (FK506 0.31 μg/ml): 0.2197 standard deviations of Log10(Expression Ratio)
- Response of gene HIS3 (FK506 0.31 μg/ml): 0.1282 standard deviations of Log10(Expression Ratio)
- Response of gene HIS5 (FK506 0.31 μg/ml): 0.2175 standard deviations of Log10(Expression Ratio)
- Response of gene MET16 (FK506 0.31 μg/ml): −0.6269 standard deviations of Log10(Expression Ratio)
- Response of gene NCE3 (FK506 0.31 μg/ml): 0.1668 standard deviations of Log10(Expression Ratio)
- Response of gene PCL5 (FK506 0.31 μg/ml): 0.2767 standard deviations of Log10(Expression Ratio)
- Response of gene SNO1 (FK506 0.31 μg/ml): 0.0244 standard deviations of Log10(Expression Ratio)
- Response of gene SNZ1 (FK506 0.31 μg/ml): 0.0244 standard deviations of Log10(Expression Ratio)
- Response of gene SSU1 (FK506 0.31 μg/ml): 0.6655 standard deviations of Log10(Expression Ratio)
- Response of gene YBR047W (FK506 0.31 μg/ml): 0.1553 standard deviations of Log10(Expression Ratio)
- Response of gene YER024W (FK506 0.31 μg/ml): −0.0419 standard deviations of Log10(Expression Ratio)
- Response of gene YGL117W (FK506 0.31 μg/ml): 0.6768 standard deviations of Log10(Expression Ratio)
- Response of gene YGL184C (FK506 0.31 μg/ml): −0.0207 standard deviations of Log10(Expression Ratio)
- Response of gene YHR029C (FK506 0.31 μg/ml): 0.2438 standard deviations of Log10(Expression Ratio)
- Response of gene YMR195W (FK506 0.31 μg/ml): 0.3323 standard deviations of Log10(Expression Ratio)
- 'Geneset' response, significance (FK506 1.6 μg/ml): > 3 sigrna
- Geneset Average response (projected response of the 20-gene Gcn4 geneset) (FK506 1.6 μg/ml): 3.3045 standard deviations of Log10(Expression Ratio)
- Response of gene ARG1 (FK506 1.6 μg/ml): 3.1765 standard deviations of Log10(Expression Ratio)
- Response of gene ARG4 (FK506 1.6 μg/ml): 1.6674 standard deviations of Log10(Expression Ratio)
- Response of gene ARG5,6 (FK506 1.6 μg/ml): 1.1844 standard deviations of Log10(Expression Ratio)
- Response of gene ARO3 (FK506 1.6 μg/ml): 0.2684 standard deviations of Log10(Expression Ratio)
- Response of gene CPA2 (FK506 1.6 μg/ml): 1.2429 standard deviations of Log10(Expression Ratio)
- Response of gene ECM13 (FK506 1.6 μg/ml): 0.5226 standard deviations of Log10(Expression Ratio)
- Response of gene HIS3 (FK506 1.6 μg/ml): 0.71 standard deviations of Log10(Expression Ratio)
- Response of gene HIS5 (FK506 1.6 μg/ml): 0.9802 standard deviations of Log10(Expression Ratio)
- Response of gene MET16 (FK506 1.6 μg/ml): −0.1885 standard deviations of Log10(Expression Ratio)
- Response of gene NCE3 (FK506 1.6 μg/ml): 1.2896 standard deviations of Log10(Expression Ratio)
- Response of gene PCL5 (FK506 1.6 μg/ml): 0.4127 standard deviations of Log10(Expression Ratio)
- Response of gene SNO1 (FK506 1.6 μg/ml): −0.4772 standard deviations of Log10(Expression Ratio)
- Response of gene SNZ1 (FK506 1.6 μg/ml): −0.4772 standard deviations of Log10(Expression Ratio)
- Response of gene SSU1 (FK506 1.6 μg/ml): 0.2883 standard deviations of Log10(Expression Ratio)
- Response of gene YBR047W (FK506 1.6 μg/ml): 0.2806 standard deviations of Log10(Expression Ratio)
- Response of gene YER024W (FK506 1.6 μg/ml): 0.4868 standard deviations of Log10(Expression Ratio)
- Response of gene YGL117W (FK506 1.6 μg/ml): 1.6276 standard deviations of Log10(Expression Ratio)
- Response of gene YGL184C (FK506 1.6 μg/ml): −0.0731 standard deviations of Log10(Expression Ratio)
- Response of gene YHR029C (FK506 1.6 μg/ml): 0.4421 standard deviations of Log10(Expression Ratio)
- Response of gene YMR195W (FK506 1.6 μg/ml): 1.6021 standard deviations of Log10(Expression Ratio)
